# According to patent US20240148733A1, “COMBINATION THERAPY” (Genentech, Inc., priority 2021, published 2024):
# Legend:
# H2122 cells (KRAS G12C) = assay: Drug combination assay (CellTiter-Glo cell viability); type: cell-based; conditions: six days, 384-wells
# Procedure: Cells were seeded in either 96-well or 384-well plates 16 h before treatment at a density of 1000 cells per well. Then, cells were treated with varying concentrations of compound(s) as indicated in FIGS. 1-8 (384-wells) and FIGS. 10-105 (96-wells), either a single agent or in combination, for six days. The relative number of viable cells was estimated using CellTiter-Glo Luminescent Cell Viability Assay (Promega, G7573). Total luminescence was detected on a Wallac Multilabel Reader (Perkin-Elmer).
# [1] = tested on: cells resistant to Compound K2; assay: Soft agar 3D culture; type: cell-based; conditions: combination with Compound K2 (a KRAS inhibitor); 11-14 day incubation; Gelcount cell counting
# Procedure: Two heat blocks (1× without blocks, 1× with 50 ml tube block) were heated to 44° C. Flat-bottom 96-well non-tissue culture treated assay plates (Falcon 353219) and fluid reservoirs were kept at 37° C. 2×RPMI+20% FCS (which can be stored at 4° C.) were made and warmed to 37° C. 100 ml 1.2% agarose and 0.58% agarose solution was made by adding […] sterile water to a sterile 500 ml bottle and then carefully adding 1.2 gram/0.58 gram agarose (using normal out-of-the-hood weight), avoiding bubbles, foam, and sticking of undiluted agarose to walls as much as possible. The solution was then microwaved until fully dissolved and bubbling. The solution was then cooled for 10-15 minutes at room temperature and incubated at 37° C. The solution can be stored at room temperature for future use.
# For each plate, 2 ml 1.2% agarose was mixed with 2 ml 2×RPMI+20% FCS in a 50 ml tube in a heat block by swirling the tube (minimizing pipetting up and down, as this cools the agarose too much). By double-tap (pipet is pushed in completely, liquid is taken up, then pushed out until first stop only), 40 μl 1.2% agarose/96-well was added, excluding edge 96-wells. The agarose was set at “waterpas” level and stored at 4° C. until further use. 1.2% agarose-containing plate was placed on ice for 10 minutes before plating cells.
# Cells were trypsinized and counted. […]
compound,measurement,setting,value
"C=CC(=O)Nc1cc2c(c(-c3ccc(C(C)C)cc3)c1)OCC2 [Compound T2, N-(7-(4-isopropylphenyl)-2,3-dihydrobenzofuran-5-yl)acrylamide]",% inhibition of H2122 cells (KRAS G12C),H2122 cells (KRAS G12C); combination with Compound K1 (a KRAS inhibitor),sensitizes cells resistant to Compound K1
same,% inhibition of H2122 cells (KRAS G12C),H2122 cells (KRAS G12C); combination with Compound K2 (a KRAS inhibitor),sensitizes cells resistant to Compound K2
same,soft agar 3D culture growth,[1],sensitizes cells resistant to Compound K2
